Test results published in ChEMBL document CHEMBL1201862, “PubChem BioAssay data set” (2004).
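Tested at 5 concentrations; 48 h exposure; 96-well plates; endpoints linearly interpolated, else capped at highest concentration. Here, GI50 denotes the concentration required for 50% inhibition of growth.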 Active and inactive are the calls of the source. Cut-off read from the data, not from the text of the source: active = GI50 up to about 1.1 µM and inactive = higher.

Experiments:
Test in all cases: NCI anticancer screen, dose series, 48 h
[1] = tested on: 786-0
[2] = tested on: A498
[3] = tested on: A549
[4] = tested on: ACHN
[5] = tested on: BT-549
[6] = tested on: CAKI-1
[7] = tested on: CCRF-CEM
[8] = tested on: COLO 205
[9] = tested on: DU-145
[10] = tested on: EKVX
[11] = tested on: HCC 2998
[12] = tested on: HCT-116
[13] = tested on: HL-60
[14] = tested on: HOP-62
[15] = tested on: HOP-92
[16] = tested on: HT-29
[17] = tested on: Hs-578T
[18] = tested on: IGROV-1
[19] = tested on: K562
[20] = tested on: KM12
[21] = tested on: M14
[22] = tested on: MCF7
[23] = tested on: MDA-MB-231
[24] = tested on: MDA-MB-435
[25] = tested on: MDA-N
[26] = tested on: MOLT-4
[27] = tested on: Malme-3M
[28] = tested on: NCI-H226
[29] = tested on: NCI-H23
[30] = tested on: NCI-H460
[31] = tested on: NCI-H522
[32] = tested on: OVCAR-3
[33] = tested on: OVCAR-4
[34] = tested on: OVCAR-5
[35] = tested on: OVCAR-8
[36] = tested on: PC-3
[37] = tested on: RXF 393
[38] = tested on: SF-268
[39] = tested on: SF-295
[40] = tested on: SF-539
[41] = tested on: SK-MEL-28
[42] = tested on: SK-MEL-5
[43] = tested on: SK-OV-3
[44] = tested on: SN12C
[45] = tested on: SNB-19
[46] = tested on: SNB-75
[47] = tested on: SR
[48] = tested on: SW-620
[49] = tested on: T47D
[50] = tested on: TK-10
[51] = tested on: U-251
[52] = tested on: UACC-257
[53] = tested on: UACC-62
[54] = tested on: UO-31
[55] = tested on: HCT-15
[56] = tested on: LOX IMVI
[57] = tested on: NCI/ADR-RES
[58] = tested on: RPMI-8226
[59] = tested on: SK-MEL-2

SMILES: CC1C2CC(C/C2=N/O)C1(C)C (configuration not stated)
- GI50 [1]: > 100 µM (inactive)
- GI50 [2]: > 100 µM (inactive)
- GI50 [3]: > 100 µM (inactive)
- GI50 [4]: > 100 µM (inactive)
- GI50 [5]: > 100 µM (inactive)
- GI50 [6]: > 100 µM (inactive)
- GI50 [7]: > 100 µM (inactive)
- GI50 [8]: > 100 µM (inactive)
- GI50 [9]: > 100 µM (inactive)
- GI50 [10]: > 100 µM (inactive)
- GI50 [11]: > 100 µM (inactive)
- GI50 [12]: > 100 µM (inactive)
- GI50 [13]: > 100 µM (inactive)
- GI50 [14]: > 100 µM (inactive)
- GI50 [15]: > 100 µM (inactive)
- GI50 [16]: > 100 µM (inactive)
- GI50 [17]: > 100 µM (inactive)
- GI50 [18]: > 100 µM (inactive)
- GI50 [19]: > 100 µM (inactive)
- GI50 [20]: > 100 µM (inactive)
- GI50 [21]: > 100 µM (inactive)
- GI50 [22]: > 100 µM (inactive)
- GI50 [23]: > 100 µM (inactive)
- GI50 [24]: > 100 µM (inactive)
- GI50 [25]: > 100 µM (inactive)
- GI50 [26]: > 100 µM (inactive)
- GI50 [27]: > 100 µM (inactive)
- GI50 [28]: > 100 µM (inactive)
- GI50 [29]: > 100 µM (inactive)
- GI50 [30]: > 100 µM (inactive)
- GI50 [31]: > 100 µM (inactive)
- GI50 [32]: > 100 µM (inactive)
- GI50 [33]: > 100 µM (inactive)
- GI50 [34]: > 100 µM (inactive)
- GI50 [35]: > 100 µM (inactive)
- GI50 [36]: > 100 µM (inactive)
- GI50 [37]: > 100 µM (inactive)
- GI50 [38]: > 100 µM (inactive)
- GI50 [39]: > 100 µM (inactive)
- GI50 [40]: > 100 µM (inactive)
- GI50 [41]: > 100 µM (inactive)
- GI50 [42]: > 100 µM (inactive)
- GI50 [43]: > 100 µM (inactive)
- GI50 [44]: > 100 µM (inactive)
- GI50 [45]: > 100 µM (inactive)
- GI50 [46]: > 100 µM (inactive)
- GI50 [47]: > 100 µM (inactive)
- GI50 [48]: > 100 µM (inactive)
- GI50 [49]: > 100 µM (inactive)
- GI50 [50]: > 100 µM (inactive)
- GI50 [51]: > 100 µM (inactive)
- GI50 [52]: > 100 µM (inactive)
- GI50 [53]: > 100 µM (inactive)
- GI50 [54]: > 100 µM (inactive)

SMILES: COC(=O)Nc1nc2cc(NC(=O)c3cccs3)ccc2[nH]1
- GI50 [1]: 50.9 µM (inactive)
- GI50 [2]: 11.2 µM (inactive)
- GI50 [3]: 46.9 µM (inactive)
- GI50 [4]: > 100 µM (inactive)
- GI50 [5]: 55.1 µM (inactive)
- GI50 [6]: 44.9 µM (inactive)
- GI50 [7]: 31.3 µM (inactive)
- GI50 [8]: 29.6 µM (inactive)
- GI50 [9]: 98.9 µM (inactive)
- GI50 [10]: 40.3 µM (inactive)
- GI50 [12]: 34.4 µM (inactive)
- GI50 [55]: 23.9 µM
- GI50 [13]: 61.7 µM (inactive)
- GI50 [14]: 84.9 µM (inactive)
- GI50 [15]: 1.53 µM (inactive)
- GI50 [16]: 33 µM (inactive)
- GI50 [17]: 15.1 µM (inactive)
- GI50 [18]: 0.296 µM (active)
- GI50 [19]: 24.3 µM (inactive)
- GI50 [20]: 21.6 µM (inactive)
- GI50 [56]: 25.9 µM (inactive)
- GI50 [21]: 33.7 µM (inactive)
- GI50 [22]: 32.1 µM (inactive)
- GI50 [23]: 62.1 µM (inactive)
- GI50 [24]: 8.57 µM (inactive)
- GI50 [25]: 10.4 µM (inactive)
- GI50 [26]: 33.7 µM (inactive)
- GI50 [27]: 23.4 µM (inactive)
- GI50 [28]: > 100 µM (inactive)
- GI50 [29]: 35.4 µM (inactive)
- GI50 [30]: 40 µM (inactive)
- GI50 [57]: 17.9 µM (inactive)
- GI50 [32]: 19.2 µM (inactive)
- GI50 [33]: 74 µM (inactive)
- GI50 [34]: 61.8 µM (inactive)
- GI50 [35]: 68.7 µM (inactive)
- GI50 [36]: 30.2 µM (inactive)
- GI50 [58]: 18.8 µM (inactive)
- GI50 [37]: 22.8 µM (inactive)
- GI50 [38]: 75.3 µM (inactive)
- GI50 [39]: 29.6 µM (inactive)
- GI50 [40]: 21.9 µM (inactive)
- GI50 [41]: 38.5 µM (inactive)
- GI50 [59]: 24.9 µM (inactive)
- GI50 [42]: 15.6 µM (inactive)
- GI50 [43]: 29 µM (inactive)
- GI50 [44]: 57.1 µM (inactive)
- GI50 [45]: 32.1 µM (inactive)
- GI50 [46]: 15.7 µM (inactive)
- GI50 [48]: 27.5 µM (inactive)
- GI50 [49]: 31.3 µM (inactive)
- GI50 [50]: 36.6 µM (inactive)
- GI50 [51]: 34.2 µM (inactive)
- GI50 [53]: 52.2 µM (inactive)
- GI50 [54]: 10.1 µM (inactive)

SMILES: Oc1ccc(Cl)cc1C1=Nn2c(COc3ccc4c(c3)CCCC4)nnc2SC1
- GI50 [2]: 1.49 µM (inactive)
- GI50 [3]: 25.5 µM (inactive)
- GI50 [4]: 15.4 µM (inactive)
- GI50 [5]: 18.3 µM (inactive)
- GI50 [6]: 19.4 µM (inactive)
- GI50 [7]: 17 µM (inactive)
- GI50 [8]: 16 µM (inactive)
- GI50 [9]: 18.3 µM (inactive)
- GI50 [10]: 15.9 µM (inactive)
- GI50 [12]: 6.56 µM (inactive)
- GI50 [55]: 17.9 µM
- GI50 [13]: 15 µM (inactive)
- GI50 [14]: 13.2 µM (inactive)
- GI50 [15]: 3.04 µM (inactive)
- GI50 [17]: 14.3 µM (inactive)
- GI50 [18]: 11.6 µM (inactive)
- GI50 [19]: 10.5 µM (inactive)
- GI50 [20]: 14.6 µM (inactive)
- GI50 [56]: 14 µM (inactive)
- GI50 [21]: 14.2 µM (inactive)
- GI50 [22]: 14.7 µM (inactive)
- GI50 [23]: 14.8 µM (inactive)
- GI50 [24]: 17 µM (inactive)
- GI50 [25]: 14.6 µM (inactive)
- GI50 [26]: 11 µM (inactive)
- GI50 [27]: > 100 µM (inactive)
- GI50 [29]: 11.4 µM (inactive)
- GI50 [30]: 14 µM (inactive)
- GI50 [31]: 6.84 µM (inactive)
- GI50 [57]: 14.8 µM (inactive)
- GI50 [32]: 12.6 µM (inactive)
- GI50 [33]: 1.44 µM (inactive)
- GI50 [34]: 17.2 µM (inactive)
- GI50 [35]: 14.9 µM (inactive)
- GI50 [36]: 10.6 µM (inactive)
- GI50 [58]: 4.99 µM (inactive)
- GI50 [37]: 16.5 µM (inactive)
- GI50 [38]: 16.4 µM (inactive)
- GI50 [39]: 14 µM (inactive)
- GI50 [40]: 16.7 µM (inactive)
- GI50 [41]: 0.129 µM (active)
- GI50 [59]: 15.4 µM (inactive)
- GI50 [42]: 5.25 µM (inactive)
- GI50 [43]: 16.9 µM (inactive)
- GI50 [44]: 6.28 µM (inactive)
- GI50 [45]: 20.7 µM (inactive)
- GI50 [48]: 16.8 µM (inactive)
- GI50 [49]: 11.2 µM (inactive)
- GI50 [50]: 4.72 µM (inactive)
- GI50 [51]: 15.3 µM (inactive)
- GI50 [52]: 16.3 µM (inactive)
- GI50 [53]: 12.4 µM (inactive)
- GI50 [54]: 10.5 µM (inactive)
